Test results as given in US20240199634A1, “CYCLIC COMPOUNDS AND METHODS OF USING SAME” (SCHRÖDINGER, INC., priority 2021, published 2024).

Each compound was assayed against T1, Full length human CDC7 protein co-expressed with DBF4 (Homo sapiens, UniProt O00311) (assay: CDC7 Kinase Biochemical Assay (ADP-Glo, PDKtide substrate)). Settings: 0.1 nM CDC7/DBF4, 1 μM ATP, 10 μM PDKtide, 4 h reaction.
T1 construct: Full length human CDC7 protein co-expressed with DBF4; purchased SignalChem (China)
Protocol: CDC7 Kinase Biochemical Assay PROTOCOL:
Full length human CDC7 protein co-expressed with DBF4 was purchased from SignalChem (China). CDC7 kinase activity was determined with PDKtide (SignalChem) as a substrate and by measuring ADP production using the ADP-Glo™ Kinase Assay kit (Promega) following the manufacturer's instructions. The kinase reaction was performed using the following conditions: Buffer: 40 mM Tris pH 7.5, 20 mM MgCl2, 0.1 mg/mL BSA and 50 μM DTT. Final reaction mix contained 0.1 nM CDC7/DBF4, 1 μM ATP and 10 μM PDKtide. The kinase reaction time was 4 h. The ADP-Glo signal was measured using an EnVision plate reader (PerkinELmer).
Percent inhibition of CDC7 kinase activity was calculated based on the following formula:
[formula] • SSample: the signal of compounds • SHigh Ctrl: the signal of high control (DMSO) • SLow Ctrl: the signal of low control (positive control CDC7 inhibitor)

T1 sequence (O00311 whole entry): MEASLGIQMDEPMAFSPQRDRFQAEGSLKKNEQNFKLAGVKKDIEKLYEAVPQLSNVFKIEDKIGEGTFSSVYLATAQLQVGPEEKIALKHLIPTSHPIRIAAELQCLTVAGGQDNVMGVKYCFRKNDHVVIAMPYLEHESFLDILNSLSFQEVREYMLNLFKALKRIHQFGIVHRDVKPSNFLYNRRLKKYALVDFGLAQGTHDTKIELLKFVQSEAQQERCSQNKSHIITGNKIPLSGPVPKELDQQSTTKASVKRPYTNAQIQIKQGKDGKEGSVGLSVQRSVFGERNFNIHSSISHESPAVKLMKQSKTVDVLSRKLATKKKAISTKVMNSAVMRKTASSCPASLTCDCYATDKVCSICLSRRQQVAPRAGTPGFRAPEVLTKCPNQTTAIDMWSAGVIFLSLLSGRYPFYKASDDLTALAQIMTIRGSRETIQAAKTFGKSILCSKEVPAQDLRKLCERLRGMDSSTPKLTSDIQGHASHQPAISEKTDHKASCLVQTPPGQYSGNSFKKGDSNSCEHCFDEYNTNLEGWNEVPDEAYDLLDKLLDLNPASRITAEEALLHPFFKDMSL
T1 sequence (Q9UBU7 whole entry partner): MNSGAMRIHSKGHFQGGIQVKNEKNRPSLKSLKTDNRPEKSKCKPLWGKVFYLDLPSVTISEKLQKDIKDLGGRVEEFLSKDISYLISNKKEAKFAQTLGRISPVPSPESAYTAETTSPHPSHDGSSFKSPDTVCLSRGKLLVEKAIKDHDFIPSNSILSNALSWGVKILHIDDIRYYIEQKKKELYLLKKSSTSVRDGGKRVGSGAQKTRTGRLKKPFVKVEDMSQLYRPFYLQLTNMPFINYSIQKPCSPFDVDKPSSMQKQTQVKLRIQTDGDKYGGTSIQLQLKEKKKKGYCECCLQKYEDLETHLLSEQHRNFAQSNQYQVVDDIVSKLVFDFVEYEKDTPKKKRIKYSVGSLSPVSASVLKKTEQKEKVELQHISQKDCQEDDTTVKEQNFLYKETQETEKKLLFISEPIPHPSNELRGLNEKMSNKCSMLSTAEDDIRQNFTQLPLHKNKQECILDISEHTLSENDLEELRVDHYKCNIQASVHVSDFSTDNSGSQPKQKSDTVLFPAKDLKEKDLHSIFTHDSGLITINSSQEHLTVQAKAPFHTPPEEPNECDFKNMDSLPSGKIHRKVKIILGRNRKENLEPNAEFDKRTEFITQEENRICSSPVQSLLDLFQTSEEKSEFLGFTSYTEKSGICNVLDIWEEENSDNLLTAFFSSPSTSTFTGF

`O=c1[nH]c2c(c3cc(-c4cn[nH]c4)sc13)CCC[C@@H]2O` (single isomer, unassigned) [Compound 3] and `O=c1[nH]c2c(c3cc(-c4cn[nH]c4)sc13)CCC[C@H]2O` (single isomer, unassigned) [Compound 4] cannot be ordered by IC50: 1 to 10 nM for the first, no more than 1 nM for the second.

Compared with `O=c1[nH]c2c(c3cc(-c4cn[nH]c4)sc13)CCC[C@H]2N1CCC(F)(F)C1` (single isomer, unassigned) [Compound 5], `O=c1[nH]c2c(c3cc(-c4cn[nH]c4)sc13)CCC[C@@H]2N1CCC(F)(F)C1` (single isomer, unassigned) [Compound 6] is higher in IC50: no more than 1 nM for the first, greater than 10 nM for the second.

Going from `CO[C@H]1COCc2c1[nH]c(=O)c1sc(-c3cn[nH]c3)cc21` (single isomer, unassigned) [Compound 10] to `CO[C@@H]1COCc2c1[nH]c(=O)c1sc(-c3cn[nH]c3)cc21` (single isomer, unassigned) [Compound 11], the IC50 rises from no more than 1 nM to greater than 10 nM.

`O=c1[nH]c2c(c3cc(-c4cn[nH]c4)sc13)CC(F)(F)C[C@H]2N1CCC1` (single isomer, unassigned) [Compound 12] and `O=c1[nH]c2c(c3cc(-c4cn[nH]c4)sc13)CC(F)(F)C[C@@H]2N1CCC1` (single isomer, unassigned) [Compound 13] cannot be ordered by IC50: 1 to 10 nM for the first, no more than 1 nM for the second.

`C[C@]1(CO)CC(F)(F)Cc2c1[nH]c(=O)c1sc(-c3cn[nH]c3)cc21` (single isomer, unassigned) [Compound 14] and `C[C@@]1(CO)CC(F)(F)Cc2c1[nH]c(=O)c1sc(-c3cn[nH]c3)cc21` (single isomer, unassigned) [Compound 15] cannot be ordered by IC50: 1 to 10 nM for the first, no more than 1 nM for the second.

Compared with `CC(C)C1(O)COCc2c1[nH]c(=O)c1sc(-c3cn[nH]c3)cc21` (single isomer, unassigned) [Compound 17], `CCC(C)C1(O)COCc2c1[nH]c(=O)c1sc(-c3cn[nH]c3)cc21` (single isomer, unassigned) [Compound 74] is higher in IC50: 1 to 10 nM for the first, greater than 10 nM for the second.

`CCC1(O)COCc2c1[nH]c(=O)c1sc(-c3cn[nH]c3)cc21` (single isomer, unassigned) [Compound 19] and `CCC(C)C1(O)COCc2c1[nH]c(=O)c1sc(-c3cn[nH]c3)cc21` (single isomer, unassigned) [Compound 75] cannot be ordered by IC50: greater than 10 nM for the first, greater than 10 nM for the second.

Compared with `CC(C)(C)[C@]1(O)COCc2c1[nH]c(=O)c1sc(-c3cn[nH]c3)cc21` (single isomer, unassigned) [Compound 21], `CCC(C)(C)C1(O)COCc2c1[nH]c(=O)c1sc(-c3cn[nH]c3)cc21` (single isomer, unassigned) [Compound 80] is higher in IC50: 1 to 10 nM for the first, greater than 10 nM for the second. The first is the more potent here.

Compared with `CC(C)(C)[C@]1(O)COCc2c1[nH]c(=O)c1sc(-c3ccncc3)cc21` (single isomer, unassigned) [Compound 23], `CC(C)(C)C1(O)COCc2c1[nH]c(=O)c1sc(-c3ccnnc3)cc21` (single isomer, unassigned) [Compound 67] is lower in IC50: greater than 10 nM for the first, no more than 1 nM for the second. The second is the more potent here.

`Cc1n[nH]cc1-c1cc2c3c([nH]c(=O)c2s1)C(O)(C(C)C)COC3` (single isomer, unassigned) [Compound 24] and `CC(C)C1(O)COCc2c1[nH]c(=O)c1sc(-c3c[nH]nc3F)cc21` (single isomer, unassigned) [Compound 26] cannot be ordered by IC50: no more than 1 nM for the first, 1 to 10 nM for the second.

`Cc1n[nH]cc1-c1cc2c3c([nH]c(=O)c2s1)C(O)(C(C)C)COC3` (single isomer, unassigned) [Compound 25] and `Cc1n[nH]cc1-c1cc2c3c([nH]c(=O)c2s1)C(O)(C(F)(F)F)COC3` (single isomer, unassigned) [Compound 33] fall in the same range of IC50: 1 to 10 nM for the first, 1 to 10 nM for the second.

`O=c1[nH]c2c(c3cc(-c4cn[nH]c4)sc13)COCC2(O)C(F)(F)F` (single isomer, unassigned) [Compound 28] and `O=c1[nH]c2c(c3cc(-c4cn[nH]c4)sc13)COCC2(O)C(F)F` (single isomer, unassigned) [Compound 43] cannot be ordered by IC50: no more than 1 nM for the first, 1 to 10 nM for the second.

`O=c1[nH]c2c(c3cc(-c4cn[nH]c4)sc13)COCC2(O)C(F)(F)F` (single isomer, unassigned) [Compound 29] and `CCC(C)(C)C1(O)COCc2c1[nH]c(=O)c1sc(-c3cn[nH]c3)cc21` (single isomer, unassigned) [Compound 81] cannot be ordered by IC50: 1 to 10 nM for the first, no more than 1 nM for the second.

`Cn1nccc1-c1cc2c3c([nH]c(=O)c2s1)C(O)(C(F)(F)F)COC3` (single isomer, unassigned) [Compound 31] and `CC(C)(C)C1(O)COCc2c1[nH]c(=O)c1sc(-c3ccncc3F)cc21` (single isomer, unassigned) [Compound 60] fall in the same range of IC50: 1 to 10 nM for the first, 1 to 10 nM for the second.

`CC1(CO)OCCc2c1[nH]c(=O)c1sc(-c3cn[nH]c3)cc21` (single isomer, unassigned) [Compound 34] and `CC(C)(O)C1(C)OCCc2c1[nH]c(=O)c1sc(-c3cn[nH]c3)cc21` (single isomer, unassigned) [Compound 56] cannot be ordered by IC50: greater than 10 nM for the first, greater than 10 nM for the second.

`CC1(CO)OCCc2c1[nH]c(=O)c1sc(-c3cn[nH]c3)cc21` (single isomer, unassigned) [Compound 35] and `CC(C)(O)C1(C)OCCc2c1[nH]c(=O)c1sc(-c3cn[nH]c3)cc21` (single isomer, unassigned) [Compound 57] cannot be ordered by IC50: no more than 1 nM for the first, 1 to 10 nM for the second.

Compared with `O=c1[nH]c2c(c3cc(-c4cn[nH]c4)sc13)CCCC2(O)C(F)F` (single isomer, unassigned) [Compound 36], `CC[C@@H](C)[C@@]1(O)COCc2c1[nH]c(=O)c1sc(-c3cn[nH]c3)cc21` (single isomer, unassigned) [Compound 76] is lower in IC50: greater than 10 nM for the first, no more than 1 nM for the second.

`COC1(C)CCCc2[nH]c(=O)c3sc(-c4cn[nH]c4)cc3c21` (single isomer, unassigned) [Compound 38] and `COC1(C)CC(F)(F)Cc2c1[nH]c(=O)c1sc(-c3cn[nH]c3)cc21` (single isomer, unassigned) [Compound 52] fall in the same range of IC50: 1 to 10 nM for the first, 1 to 10 nM for the second.

`COC1(C)CCCc2[nH]c(=O)c3sc(-c4cn[nH]c4)cc3c21` (single isomer, unassigned) [Compound 39] and `COC1(C)CC(F)(F)Cc2c1[nH]c(=O)c1sc(-c3cn[nH]c3)cc21` (single isomer, unassigned) [Compound 53] cannot be ordered by IC50: no more than 1 nM for the first, no more than 1 nM for the second.

`CC(C)C1(O)COCc2c1[nH]c(=O)c1sc(-c3ccncc3)cc21` (single isomer, unassigned) [Compound 45] and `CC(C)C1(O)COCc2c1[nH]c(=O)c1sc(-c3ccns3)cc21` (single isomer, unassigned) [Compound 47] cannot be ordered by IC50: greater than 10 nM for the first, greater than 10 nM for the second.

First: COCC1(O)CC(F)(F)Cc2c1[nH]c(=O)c1sc(-c3cn[nH]c3)cc21 (single isomer, unassigned) [Compound 48]
Second: CCC1(O)CC(F)(F)Cc2c1[nH]c(=O)c1sc(-c3cn[nH]c3)cc21 (single isomer, unassigned) [Compound 50]
The IC50 of the first is higher: greater than 10 nM for the first, 1 to 10 nM for the second.

`COCC1(O)CC(F)(F)Cc2c1[nH]c(=O)c1sc(-c3cn[nH]c3)cc21` (single isomer, unassigned) [Compound 49] and `CC1(O)CC(F)(F)Cc2c1[nH]c(=O)c1sc(-c3cn[nH]c3)cc21` (single isomer, unassigned) [Compound 54] cannot be ordered by IC50: no more than 1 nM for the first, no more than 1 nM for the second.

`CC1(O)CC(F)(F)Cc2c1[nH]c(=O)c1sc(-c3cn[nH]c3)cc21` (single isomer, unassigned) [Compound 55] and `CC#CC1(O)COCc2c1[nH]c(=O)c1sc(-c3cn[nH]c3)cc21` (single isomer, unassigned) [Compound 72] fall in the same range of IC50: 1 to 10 nM for the first, 1 to 10 nM for the second.

Compared with `Cc1cc(-c2cc3c4c([nH]c(=O)c3s2)C(O)(C(C)(C)C)COC4)ccn1` (single isomer, unassigned) [Compound 61], `CC(C)(C)C1(O)COCc2c1[nH]c(=O)c1sc(-c3ccnnc3)cc21` (single isomer, unassigned) [Compound 68] is higher in IC50: no more than 1 nM for the first, greater than 10 nM for the second. The first is the more potent here.

`Cc1cc(-c2cc3c4c([nH]c(=O)c3s2)C(O)(C(C)(C)C)COC4)ccn1` (single isomer, unassigned) [Compound 62] and `Cc1cnccc1-c1cc2c3c([nH]c(=O)c2s1)C(O)(C(C)(C)C)COC3` (single isomer, unassigned) [Compound 70] cannot be ordered by IC50: greater than 10 nM for the first, greater than 10 nM for the second.

Compared with `CC(C)(C)C1(O)COCc2c1[nH]c(=O)c1sc(-c3ncncc3Cl)cc21` (single isomer, unassigned) [Compound 63], `CC(C)(C)C1(O)COCc2c1[nH]c(=O)c1sc(-c3c[nH]nc3F)cc21` (single isomer, unassigned) [Compound 65] is higher in IC50: no more than 1 nM for the first, greater than 10 nM for the second. The first is the more potent here.

`CC(C)(C)C1(O)COCc2c1[nH]c(=O)c1sc(-c3ncncc3Cl)cc21` (single isomer, unassigned) [Compound 64] and `CC(C)(C)C1(O)COCc2c1[nH]c(=O)c1sc(-c3c[nH]nc3F)cc21` (single isomer, unassigned) [Compound 66] cannot be ordered by IC50: 1 to 10 nM for the first, no more than 1 nM for the second.

Compared with `CC#CC1(O)COCc2c1[nH]c(=O)c1sc(-c3cn[nH]c3)cc21` (single isomer, unassigned) [Compound 73], `CC[C@H](C)[C@]1(O)COCc2c1[nH]c(=O)c1sc(-c3cn[nH]c3)cc21` (single isomer, unassigned) [Compound 77] is lower in IC50: greater than 10 nM for the first, no more than 1 nM for the second.

For `O=c1[nH]c2c(c3cc(-c4cn[nH]c4)sc13)COCC2(O)C1CCCC1` (single isomer, unassigned) [Compound 78], the IC50 was no more than 1 nM.
In the case of `O=c1[nH]c2c(c3cc(-c4cn[nH]c4)sc13)COCC2(O)C1CCCC1` (single isomer, unassigned) [Compound 79], the IC50 is reported as 1 to 10 nM.
